Source: ChEMBL document CHEMBL1128393 (J Med Chem, 1995)

What was measured:
[1] = target: T1, Cytochrome P450 17 (Steroid 17-alpha-hydroxylase/17,20 lyase) (Rattus norvegicus, UniProt P11715); test: in vitro
T1 sequence (P11715 whole entry): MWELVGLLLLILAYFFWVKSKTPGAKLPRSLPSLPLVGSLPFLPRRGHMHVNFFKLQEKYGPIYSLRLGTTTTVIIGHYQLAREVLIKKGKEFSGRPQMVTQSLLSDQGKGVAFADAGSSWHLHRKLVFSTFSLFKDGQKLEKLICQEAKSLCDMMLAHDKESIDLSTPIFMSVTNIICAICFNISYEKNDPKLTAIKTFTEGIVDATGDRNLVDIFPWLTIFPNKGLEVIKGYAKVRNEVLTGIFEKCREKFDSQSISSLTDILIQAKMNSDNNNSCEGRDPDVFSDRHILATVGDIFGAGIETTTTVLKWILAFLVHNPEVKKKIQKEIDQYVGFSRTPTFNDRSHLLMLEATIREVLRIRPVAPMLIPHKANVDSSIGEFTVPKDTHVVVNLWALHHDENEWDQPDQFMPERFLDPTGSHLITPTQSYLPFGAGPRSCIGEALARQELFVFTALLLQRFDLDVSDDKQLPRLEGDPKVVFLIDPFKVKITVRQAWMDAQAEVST

[2] = target: T2, Cytochrome P450 18 hydroxylase (Cytochrome P450 11B2, mitochondrial) (Homo sapiens, UniProt P19099); test: in vitro; conditions: cattle
T2 sequence (P19099 whole entry): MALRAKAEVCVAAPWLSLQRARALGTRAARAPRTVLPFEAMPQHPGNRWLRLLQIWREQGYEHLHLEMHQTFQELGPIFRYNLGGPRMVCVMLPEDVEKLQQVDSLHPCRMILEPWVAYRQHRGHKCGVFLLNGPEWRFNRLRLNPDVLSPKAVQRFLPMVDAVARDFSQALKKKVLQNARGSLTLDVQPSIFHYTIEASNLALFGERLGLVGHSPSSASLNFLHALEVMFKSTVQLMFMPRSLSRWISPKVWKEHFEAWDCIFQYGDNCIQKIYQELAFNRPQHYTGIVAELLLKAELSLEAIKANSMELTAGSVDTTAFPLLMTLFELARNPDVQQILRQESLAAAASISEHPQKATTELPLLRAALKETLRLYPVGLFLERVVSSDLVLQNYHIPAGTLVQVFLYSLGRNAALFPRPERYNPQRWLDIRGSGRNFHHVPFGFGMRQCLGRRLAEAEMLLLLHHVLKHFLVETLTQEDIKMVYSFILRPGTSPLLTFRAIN

[3] = target: T3, Cytochrome P450 11B2, mitochondrial (Rattus norvegicus, UniProt P30099)
T3 sequence (P30099 whole entry): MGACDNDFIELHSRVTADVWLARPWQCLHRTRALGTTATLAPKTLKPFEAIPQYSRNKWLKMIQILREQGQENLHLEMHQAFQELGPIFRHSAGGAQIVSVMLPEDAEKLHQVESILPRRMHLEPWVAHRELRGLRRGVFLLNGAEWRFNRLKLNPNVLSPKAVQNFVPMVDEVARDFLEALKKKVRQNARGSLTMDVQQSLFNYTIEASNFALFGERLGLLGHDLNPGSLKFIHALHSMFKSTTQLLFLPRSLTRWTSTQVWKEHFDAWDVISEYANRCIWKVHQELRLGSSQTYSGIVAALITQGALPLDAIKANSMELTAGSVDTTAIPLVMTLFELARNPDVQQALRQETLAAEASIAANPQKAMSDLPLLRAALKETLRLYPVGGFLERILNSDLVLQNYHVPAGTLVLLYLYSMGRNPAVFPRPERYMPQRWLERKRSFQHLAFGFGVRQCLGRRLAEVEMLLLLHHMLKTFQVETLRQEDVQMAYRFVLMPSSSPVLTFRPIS

Rattus norvegicus [4] = species: Rattus norvegicus; format: functional
Rattus norvegicus [5] = species: Rattus norvegicus; format: functional; remark: listed apart in the source
Rattus norvegicus [6] = species: Rattus norvegicus; format: functional; remark: listed apart in the source
Rattus norvegicus [7] = species: Rattus norvegicus; format: functional; remark: listed apart in the source
[8] = target: T3, Cytochrome P450 11B2, mitochondrial; remark: listed apart in the source
Rattus norvegicus [9] = species: Rattus norvegicus; format: functional; remark: listed apart in the source
Rattus norvegicus [10] = species: Rattus norvegicus; format: functional; remark: listed apart in the source
Rattus norvegicus [11] = species: Rattus norvegicus; format: functional; remark: listed apart in the source
Aromatase [12] = target: T4, Aromatase (Rattus norvegicus, UniProt P22443); conditions: in vivo, 30 mg/kg
T4 sequence (P22443 whole entry): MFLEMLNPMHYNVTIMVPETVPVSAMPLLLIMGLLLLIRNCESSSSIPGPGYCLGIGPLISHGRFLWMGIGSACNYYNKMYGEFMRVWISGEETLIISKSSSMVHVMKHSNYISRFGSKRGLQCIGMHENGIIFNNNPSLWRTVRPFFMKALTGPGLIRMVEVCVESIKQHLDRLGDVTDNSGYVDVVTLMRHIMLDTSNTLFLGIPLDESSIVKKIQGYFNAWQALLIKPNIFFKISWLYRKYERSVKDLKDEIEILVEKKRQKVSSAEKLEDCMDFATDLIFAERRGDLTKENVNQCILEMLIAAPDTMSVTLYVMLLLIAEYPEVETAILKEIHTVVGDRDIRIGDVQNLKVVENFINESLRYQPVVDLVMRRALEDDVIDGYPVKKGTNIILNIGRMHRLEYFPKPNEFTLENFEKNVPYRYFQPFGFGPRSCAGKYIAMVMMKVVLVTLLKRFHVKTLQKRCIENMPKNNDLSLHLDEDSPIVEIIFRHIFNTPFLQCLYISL

Aromatase [13] = target: T4, Aromatase; conditions: in vivo, 30 mg/kg; remark: listed apart in the source
[14] = target: T5, Cytochrome P450 11B1, mitochondrial (Homo sapiens, UniProt P15538)
T5 sequence (P15538 whole entry): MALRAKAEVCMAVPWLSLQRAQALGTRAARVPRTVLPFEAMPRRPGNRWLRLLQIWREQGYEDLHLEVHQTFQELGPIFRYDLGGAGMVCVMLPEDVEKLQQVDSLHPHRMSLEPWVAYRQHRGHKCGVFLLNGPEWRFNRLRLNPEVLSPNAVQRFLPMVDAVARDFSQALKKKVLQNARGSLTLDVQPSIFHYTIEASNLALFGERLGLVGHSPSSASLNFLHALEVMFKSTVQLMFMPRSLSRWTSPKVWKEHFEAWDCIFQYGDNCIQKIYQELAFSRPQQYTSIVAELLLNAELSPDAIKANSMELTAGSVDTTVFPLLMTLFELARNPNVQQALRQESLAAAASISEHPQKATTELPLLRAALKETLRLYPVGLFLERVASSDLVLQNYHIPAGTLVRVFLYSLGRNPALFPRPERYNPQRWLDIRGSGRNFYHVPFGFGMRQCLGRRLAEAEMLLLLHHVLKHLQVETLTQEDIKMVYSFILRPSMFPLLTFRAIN

Rattus norvegicus [15] = species: Rattus norvegicus; format: functional; remark: listed apart in the source
[16] = target: T6, Steroid 17-alpha-hydroxylase/17,20 lyase (Rattus norvegicus, UniProt P11715); conditions: 125 µM
T6 sequence (P11715 whole entry): T1 sequence (P11715 whole entry)

Rattus norvegicus [17] = species: Rattus norvegicus; format: functional; remark: listed apart in the source
Aromatase [18] = target: T4, Aromatase
Rattus norvegicus [19] = species: Rattus norvegicus; format: functional; remark: listed apart in the source
Rattus norvegicus [20] = species: Rattus norvegicus; format: functional; remark: listed apart in the source
Rattus norvegicus [21] = species: Rattus norvegicus; format: functional; remark: listed apart in the source
Rattus norvegicus [22] = species: Rattus norvegicus; format: functional; remark: listed apart in the source
Rattus norvegicus [23] = species: Rattus norvegicus; format: functional; remark: listed apart in the source
Rattus norvegicus [24] = species: Rattus norvegicus; format: functional; remark: listed apart in the source
Rattus norvegicus [25] = species: Rattus norvegicus; format: functional; remark: listed apart in the source
Rattus norvegicus [26] = species: Rattus norvegicus; format: functional; remark: listed apart in the source
Rattus norvegicus [27] = species: Rattus norvegicus; format: functional; remark: listed apart in the source
[28] = target: T3, Cytochrome P450 11B2, mitochondrial; remark: listed apart in the source
Aromatase [29] = target: T4, Aromatase; conditions: in vivo, 30 mg/kg; remark: listed apart in the source
Aromatase [30] = target: T4, Aromatase; conditions: in vivo, 30 mg/kg; remark: listed apart in the source
Aromatase [31] = target: T4, Aromatase; conditions: in vivo, 30 mg/kg; remark: listed apart in the source

## Oc1ccc2c(c1)CCC1C(c3ccncc3)C21 (stereo not given)
[1]
  inhibition at 125 µM: 41%
[2]
  inhibition at 1 µM: 36%

## Oc1ccc2c(c1)C1C(CC2)C1c1ccncc1 (stereo not given)
[3]
  IC50: 7 µM

## c1ccc2c(c1)CCC1C(c3ccncc3)C21 (stereo not given)
Rattus norvegicus [4]
  Tumors: 9%
Rattus norvegicus [5]
  No. of tumors: 1
Rattus norvegicus [6]
  Tumors: 16%
[1]
  inhibition at 125 µM: 36%
Rattus norvegicus [7]
  No. of tumors: 32
[8]
  IC50: 3 µM
[2]
  inhibition at 1 µM: 55%
Rattus norvegicus [9]
  Tumors: 28%
Rattus norvegicus [10]
  Tumors: 47%
Rattus norvegicus [11]
  Change of tumor area: 36%
Aromatase [12]
  Mean: 124

## COc1cccc2c1CCC1C(c3ccncc3)C21 (stereo not given)
[1]
  inhibition at 125 µM: 51%
[2]
  inhibition at 1 µM: 38%

## COc1ccc2c(c1)C1C(CC2)C1(C)c1ccncc1 (stereo not given)
[1]
  inhibition at 125 µM: 68%
Aromatase [13]
  Effect: 139

## COc1ccc2c(c1)C1C(CC2)C1c1ccncc1 (single isomer, unassigned; (+))
[3]
  IC50: 6 µM
[1]
  inhibition at 125 µM: 54%
[14]
  IC50: 95 µM

## COc1ccc2c(c1)C1C(CC2)C1c1ccncc1 (stereo in doubt; 4)
Rattus norvegicus [15]
  Tumors: 43%
[16]
  Inhibition: 47%
[3]
  IC50: 15 µM
Rattus norvegicus [6]
  Tumors: 15%
Rattus norvegicus [17]
  No. of tumors: 25
Aromatase [18]
  IC50: 0.265 µM
Rattus norvegicus [19]
  Change of tumor area: 55%
Rattus norvegicus [20]
  Tumors: 0%
Aromatase [13]
  Effect: 132
Rattus norvegicus [21]
  No. of tumors: 33
[2]
  inhibition at 1 µM: 45%
Rattus norvegicus [10]
  Tumors: 52%
Rattus norvegicus [22]
  No. of tumors: 5
Rattus norvegicus [11]
  Change of tumor area: 29%
Rattus norvegicus [23]
  Tumors: 15%
Rattus norvegicus [24]
  Tumors: 18%
Rattus norvegicus [25]
  Tumors: 37%
Rattus norvegicus [26]
  No. of tumors: 10
Rattus norvegicus [27]
  Tumors: 20%
[14]
  IC50: 75 µM

## COc1cc2c(cc1Br)CCC1C(c3ccncc3)C21 (stereo in doubt; 7)
Aromatase [13]
  Effect: 176

## COc1ccc2c(c1)C1C(CC2)C1c1ccncc1 (stereo in doubt; (-)-4)
[16]
  Inhibition: 45%
[3]
  IC50: 10 µM
[14]
  IC50: 30 µM

## CCC1(c2ccc(N)cc2)CCC(=O)NC1=O (stereo not given) [AMINOGLUTETHIMIDE]
[28]
  IC50: 50 µM
[8]
  IC50: 80 µM

## C[C@]12CCC(=O)C=C1CC[C@@H]1[C@@H]2CC[C@]2(C)C(=O)CC[C@@H]12 [ANDROSTENEDIONE]
Aromatase [29]
  Mean: 202
Aromatase [30]
  Mean: 187
Aromatase [31]
  Mean: 138
